Data from patent US7432095B2, “Formate dehydrogenase tolerant to halogen compounds and process for producing the same” (Kaneka Corporation, priority 2001, dated 2008).
Where two headings read alike, the source gives them in different places.

Assays:
[1] = tested on: KNK65MA FDH (formate dehydrogenase); test: Haloketone tolerance: residual FDH activity of cell-free extract after standing with haloketone; format: biochemical, Thiobacillus sp. KNK65MA; conditions: 30° C.
[2] = tested on: FDH derived from the KNK607 strain; test: as above; format: biochemical; conditions: 30° C.
[3] = target: T1, Candida boidinii FDH (Candida boidinii, UniProt O13437); test: biochemical
T1 sequence (O13437 1-364): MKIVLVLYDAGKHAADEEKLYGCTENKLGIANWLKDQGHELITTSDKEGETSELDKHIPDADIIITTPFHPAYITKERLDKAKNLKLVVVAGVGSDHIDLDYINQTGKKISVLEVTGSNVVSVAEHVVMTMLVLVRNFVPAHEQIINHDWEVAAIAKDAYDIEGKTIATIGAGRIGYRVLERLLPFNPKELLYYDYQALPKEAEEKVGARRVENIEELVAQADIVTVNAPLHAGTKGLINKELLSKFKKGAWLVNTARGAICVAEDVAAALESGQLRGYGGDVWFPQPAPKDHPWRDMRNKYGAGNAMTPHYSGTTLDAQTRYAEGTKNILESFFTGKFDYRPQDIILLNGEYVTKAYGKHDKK

[4] = Formate dehydrogenase activity assay (NADH formation, absorbance at 340 nm) of the purified enzyme; format: biochemical, Thiobacillus sp. KNK65MA; conditions: for Specific activity: 0.1 M phosphate buffer pH 7, 500 mM sodium formate, 5 mM NAD
Method: In the present invention, the formate dehydrogenase activity of the polypeptide is assayed by quantitating the increase in absorbance at 340 nm resulting from the production of NADH at 30° C. or 40° C. in a 0.1 M phosphate buffer (pH 7) containing 500 mM sodium formate and 5 mM NAD.
The molecular weight determination is by gel permeation chromatography. The Km value for formate is determined by measuring the activity under the above conditions of activity assay (30° C., NAD 5 mM) while the concentration of sodium formate is varied, and the Km value for NAD is determined under the above conditions of activity assay (30° C., sodium formate 500 mM) while the concentration of NAD is varied. […]
The activity of the formate dehydrogenase obtained was assayed by quantitating the increase in absorbance at 340 nm resulting from formation of NADH in 0.1 M phosphate buffer (pH 7) containing 500 mM sodium formate and 5 mM NAD at 30° C. or 40° C. In this connection, the amount of the enzyme yielding […] of NADH in 1 minute was defined as 1 unit. Protein assay was performed by the method of Lowry using BSA as standard protein. The specific activity of the purified formate dehydrogenase was 7.6 u/mg protein (30° C.) or 13.3 μ/mg protein (40° C.)
The Km values for formate and NAD were determined as follows. Thus, the Km value for formate was determined by measuring the activity with the concentration of sodium formate varied under the above specific activity assay conditions (30° C., NAD 5 mM) and the Km value for NAD was determined by measuring the activity with the concentration of NAD varied under the above specific activity assay conditions (30° C., sodium formate 500 mM). In FIG. 3 and FIG. 4, V represents the reaction velocity of the enzyme, S represents the concentration of the substrate, and the intercept of the abscissa represents −1/Km. […]

[5] = tested on: ethyl 4-chloroacetoacetate reduction system (NAD regeneration); test: Coenzyme regeneration in the enzymatic reduction system of ethyl 4-chloroacetoacetate; format: biochemical; conditions: 6 g ethyl 4-chloroacetoacetate in 60 ml, butyl acetate/water, pH 6.5, 30° C., 3.5 hours, reductase from HB101 (pNTS1M1)
Method: Escherichia coli HB101 (pFT002) expressing the KNK65MA-derived FDH as acquired in Example 7 and Escherichia coli HB101 (pFA002) expressing KNK607-derived FDH (WO 02/46427) were respectively inoculated into 60 ml of the liquid medium shown in Table 5 sterilized in a 500 ml Sakaguchi flask and shake-cultured at 37° C. for 9 hours. The resulting culture medium was inoculated into 100 ml of the liquid medium shown in Table 5 sterilized in a 500 ml Sakaguchi flask in size of 1% and shake-cultured at 37° C. for 46 hours. The resulting culture medium was centrifugally concentrated 5-fold and sonicated to give an FDH enzyme solution. On the other hand, for use as the reductase enzyme for reducing a 4-haloacetoacetate, the recombinant Escherichia coli HB101 (pNTS1M1)(FERM BP-8059) was inoculated into 100 ml of the medium shown in Table 5 sterilized in a 500 ml Sakaguchi flask, shake-cultured at 37° C. for 23 hours, and concentrated 10-fold and the cells were disrupted. […] After completion of the reaction, the reaction mixture was extracted with butyl acetate and the extract was analyzed. […]
The quantitation of ethyl 4-chloro-3-hydroxybutyrate was carried out by gas chromatography. […]

[6] = […], haloketone 20 mM added 1:1, 28.5 hours, […]
[7] = KNK65MA FDH extract, haloketone 20 mM added 1:1, 5 hours, untreated extract = 100%
[8] = KNK607 FDH extract, haloketone 20 mM added 1:1, 5 hours, untreated extract = 100%
[9] = Candida boidinii FDH extract, haloketone 20 mM added 1:1, 30° C., 5 hours, untreated extract = 100%, read-out: Residual FDH activity (%)
[10] = […], haloketone 20 mM added 1:1, 5 hours, […]
[11] = […], haloketone 20 mM added 1:1, 30° C., 5 hours, […], read-out: Residual FDH activity (%)

With `CC(C)(C)OC(=O)N[C@@H](Cc1ccccc1)C(=O)CCl` [1,1-dimethylethyl [(1S)-3-chloro-2-oxo-1-(phenylmethyl)propyl]carbamate] the “Residual FDH activity (%)” value ([1]; KNK65MA FDH extract, haloketone 2 mM added 1:1, 5 hours, untreated extract = 100%) was 100.0%, the “Residual FDH activity (%)” value ([2]; KNK607 FDH extract, haloketone 2 mM added 1:1, 5 hours, untreated extract = 100%) was 81.6% and the remaining activity at 2000 µM ([3]; Candida boidinii FDH extract, haloketone 2 mM added 1:1, 30° C., 5 hours, untreated extract = 100%, read-out: Residual FDH activity (%)) was 31.3%.

With `O=C(CCl)c1ccccc1` [2-Chloroacetophenone, 2-chloroacetophenone] the “Residual FDH activity (%)” value [1, 6] was 100.7%, the “Residual FDH activity (%)” value [2, 6] was 100.0% and the remaining activity at 20000 µM ([3]; 28.5 h, read-out: Residual FDH activity (%)) was 29.4%.

In the case of `O=C(CO)CCl` [1-Chloro-3-hydroxy-2-propanone, 1-chloro-3-hydroxy-2-propanone], the “Residual FDH activity (%)” value [1, 7] is reported as 80.1%, the “Residual FDH activity (%)” value [2, 8] is reported as 11.7% and the remaining activity at 20000 µM [3, 9] is reported as 14.7%.

With chloroacetone the “Residual FDH activity (%)” value ([1]; 5 hours) was 100.0%, the “Residual FDH activity (%)” value ([2]; 5 hours) was 46.2% and the “Residual FDH activity (%)” value ([3]; 30° C., 5 hours) was 38.2%.

In the case of `COC(=O)CC(=O)CCl` [Methyl4-chloroacetoacetate, methyl 4-chloroacetoacetate], the “Residual FDH activity (%)” value [1, 10] is reported as 100.0%, the “Residual FDH activity (%)” value [2, 10] is reported as 13.1% and the remaining activity at 20000 µM [3, 11] is reported as 14.9%.

With `O=C(CCl)c1cccc(Cl)c1` [2,3′-Dichloroacetophenone, 2,3′-dichloroacetophenone] the “Residual FDH activity (%)” value [1, 10] was 97.9%, the “Residual FDH activity (%)” value [2, 10] was 27.0% and the remaining activity at 20000 µM [3, 11] was 7.4%.

With `O=C(CCl)COC(=O)c1ccccc1` [1-(Benzoyloxy)-3-chloro-2-propanone, 1-(benzoyloxy)-3-chloro-2-propanone] the “Residual FDH activity (%)” value ([1]; KNK65MA FDH extract, haloketone 10 mM added 1:1, 5 hours, untreated extract = 100%) was 100.7%, the “Residual FDH activity (%)” value ([2]; KNK607 FDH extract, haloketone 10 mM added 1:1, 5 hours, untreated extract = 100%) was 1.6% and the remaining activity at 10000 µM ([3]; Candida boidinii FDH extract, haloketone 10 mM added 1:1, 30° C., 5 hours, untreated extract = 100%, read-out: Residual FDH activity (%)) was 4.5%.

For `CCOC(=O)CC(=O)CCl` [Ethyl4-chloroacetoacetate, ethyl 4-chloroacetoacetate], the “Residual FDH activity (%)” value [1, 10] was 100.7%, the “Residual FDH activity (%)” value [2, 10] was 20.1% and the remaining activity at 20000 µM [3, 11] was 14.3%.

In the case of `CCOC(=O)CC(=O)CBr` [Ethyl4-bromoacetoacetate, ethyl 4-bromoacetoacetate], the “Residual FDH activity (%)” value [1, 7] is reported as 24.1%, the “Residual FDH activity (%)” value [2, 8] is reported as 0.0% and the remaining activity at 20000 µM [3, 9] is reported as 0%.

For `CCOC(=O)C(Cl)C(C)=O` (centres unmarked) [Ethyl2-chloroacetoacetate, ethyl 2-chloroacetoacetate], the “Residual FDH activity (%)” value [1, 10] was 100.0%, the “Residual FDH activity (%)” value [2, 10] was 2.5% and the remaining activity at 20000 µM [3, 11] was 5.4%.

With `CCOC(=O)CC(=O)CI` [Ethyl4-iodoacetoacetate, ethyl 4-iodoacetoacetate] the “Residual FDH activity (%)” value [1, 7] was 12.1%, the “Residual FDH activity (%)” value [2, 8] was 0.0% and the remaining activity at 20000 µM [3, 9] was 0%.

With `O=C(CCl)c1cccnc1` [2-Chloro-1-(3-pyridinyl)ethanone, 2-chloro-1-(3-pyridinyl)ethanone] the “Residual FDH activity (%)” value [1, 10] was 90.1%, the “Residual FDH activity (%)” value [2, 10] was 6.1% and the remaining activity at 20000 µM [3, 11] was 1.5%.

B1: FDH derived from KNK65MA: Haloketone-tolerant NAD-dependent formate dehydrogenase from Thiobacillus sp. KNK65MA, amino acid sequence SEQ ID NO:1 (protein, listed as Thiobacillus sp.)
chain: MAKILCVLYDDPVDGYPKTYARDDLPKIDHYPGGQTLPTPKAIDFTPGQLLGSVSGELGLRKYLEANGHTFVVTSDKDGPDSVFEKELVDADVVISQPFWPAYLTPERIAKAKNLKLALTAGIGSDHVDLQSAIDRGITVAEVTYCNSISVAEHVVMMILGLVRNYIPSHDWARKGGWNIADCVEHSYDLEGMTVGSVAAGRIGLAVLRRLAPFDVKLHYTDRHRLPEAVEKELGLVWHDTREDMYPHCDVVTLNVPLHPETEHMINDETLKLFKRGAYIVNTARGKLADRDAIVRAIESGQLAGYAGDVWFPQPAPKDHPWRTMKWEGMTPHISGTSLSAQARYAAGTREILECFFEGRPIRDEYLIVQGGALAGTGAHSYSKGNATGGSEEAAKFKKAG
B1 showed a Km ([4]; 30° C., NAD 5 mM, sodium formate varied, read-out: Km value for formate) of 1600 µM, a Km ([4]; 30° C., sodium formate 500 mM, NAD varied, read-out: Km value for NAD) of 48 µM and a Specific activity ([4]; 30° C.) of 7.6 u/mg protein. For the same molecule, the Specific activity ([4]; 40° C.) was 13.3 μ/mg protein and the “Conversion rate to ethyl 4-chloro-3-hydroxybutyrate” value [5] was 100%.
